In patent US11873292B2, “Trans-indoline cyclopropylamine chemical compound, and method for preparation, pharmaceutical composition, and use thereof” (Shanghai Institute of Materia Medica, Chinese Academy of …, priority 2016, dated 2024):

Tests used:
Human recombinant LSD1 = Human recombinant LSD1 (Homo sapiens (Human), UniProt O60341); assay: LSD1 in vitro activity assay (LANCE Ultra LSD1 Histone H3-Lysine 4 Demethylase Assay); assay type: biochemical; conditions: LSD1 inhibition
Human recombinant MAOA = Human recombinant MAOA (Homo sapiens (Human), UniProt P21397); assay: MAOA in vitro activity experiment (MAO-Glo); assay type: biochemical
Chain of Human recombinant MAOA (P21397 whole entry): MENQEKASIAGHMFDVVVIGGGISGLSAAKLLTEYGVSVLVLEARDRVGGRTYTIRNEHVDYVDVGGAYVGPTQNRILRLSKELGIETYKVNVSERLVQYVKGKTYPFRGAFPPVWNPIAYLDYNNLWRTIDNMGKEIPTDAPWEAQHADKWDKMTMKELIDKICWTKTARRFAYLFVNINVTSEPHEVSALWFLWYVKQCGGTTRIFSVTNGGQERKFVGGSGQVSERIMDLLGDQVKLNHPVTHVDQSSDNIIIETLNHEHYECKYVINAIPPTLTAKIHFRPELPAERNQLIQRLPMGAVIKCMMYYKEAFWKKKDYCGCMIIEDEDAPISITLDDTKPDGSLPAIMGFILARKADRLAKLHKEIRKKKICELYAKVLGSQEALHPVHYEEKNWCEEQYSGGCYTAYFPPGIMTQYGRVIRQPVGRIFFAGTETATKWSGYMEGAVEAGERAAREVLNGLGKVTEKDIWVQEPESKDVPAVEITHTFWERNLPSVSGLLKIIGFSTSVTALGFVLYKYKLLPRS

human recombinant MAOB = human recombinant MAOB (Homo sapiens (Human), UniProt P27338); assay: MAOB in vitro activity experiment (MAO-Glo); assay type: biochemical
Chain of human recombinant MAOB (P27338 whole entry): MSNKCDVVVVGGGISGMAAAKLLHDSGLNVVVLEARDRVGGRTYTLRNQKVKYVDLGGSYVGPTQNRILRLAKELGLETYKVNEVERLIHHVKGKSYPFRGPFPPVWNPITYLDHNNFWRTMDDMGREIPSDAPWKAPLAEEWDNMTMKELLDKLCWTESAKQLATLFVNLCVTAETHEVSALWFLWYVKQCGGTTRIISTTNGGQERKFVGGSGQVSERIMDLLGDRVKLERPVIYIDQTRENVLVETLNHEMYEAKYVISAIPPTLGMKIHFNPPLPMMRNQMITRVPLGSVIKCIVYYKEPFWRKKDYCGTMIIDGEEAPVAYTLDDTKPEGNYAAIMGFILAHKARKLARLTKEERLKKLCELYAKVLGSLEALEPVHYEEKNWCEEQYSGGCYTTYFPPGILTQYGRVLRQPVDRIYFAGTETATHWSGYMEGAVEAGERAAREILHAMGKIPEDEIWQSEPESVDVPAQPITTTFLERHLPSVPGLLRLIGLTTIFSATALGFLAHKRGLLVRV

SMILES | IC50 (Human recombinant LSD1) [µM] | melting point [°C] | IC50 (Human recombinant MAOA) [µM] | IC50 (human recombinant MAOB) [µM]
N[C@@H]1C[C@H]1c1ccc2c(c1)CCN2S(=O)(=O)c1ccccc1 (relative stereo) [Compound A1, Trans-2-(1-(phenylsulfonyl)indolin-5-yl)cyclopropylamine] | 1.79 ± 0.0884 | 190 to 193 | – | –
CC(C)(C)OC(=O)N1CCC(CN[C@@H]2C[C@H]2c2ccc3c(c2)CCN3S(=O)(=O)c2ccccc2)CC1 (relative stereo) [Compound A27, Trans-tert-butyl 4-((2-(1-(phenylsulfonyl)indolin-5-yl)cyclopropylamino)methyl)piperidine-1-carboxylate] | 0.0713 ± 0.0043 | 60 to 61 | > 100 | > 100
O=C(OCc1ccccc1)N1CCC(CN[C@@H]2C[C@H]2c2ccc3c(c2)CCN3S(=O)(=O)c2ccccc2)CC1 (relative stereo) [Compound A28, Trans-benzyl 4-((2-(1-(phenylsulfonyl)indolin-5-yl)cyclopropylamino)methyl)piperidine-1-carboxylate] | 0.265 ± 0.0808 | 90 to 92 | – | –
CC(C)(C)OC(=O)N1CCC(C(=O)N[C@@H]2C[C@H]2c2ccc3c(c2)CCN3S(=O)(=O)c2ccccc2)CC1 (relative stereo) [Compound A29, Trans-tert-butyl 4-(2-(1-(phenylsulfonyl)indolin-5-yl)cyclopropylcarbamoyl)piperidine-1-carboxylate] | 1.69 ± 0.449 | 146 to 148 | – | –
O=S(=O)(c1ccc(C(F)(F)F)cc1)N1CCc2cc([C@@H]3C[C@H]3NCC3CCNCC3)ccc21 (relative stereo) [Compound A34, trans-N-(piperidin-4-ylmethyl)-2-(1-(4-(trifluoromethyl)benzenesulfonyl)indolin-5-yl)cyclopropylamine] | 0.0433 ± 0.00509 | 217 to 221 | > 100 | > 100
O=C(c1ccc(-c2ccccc2)cc1)N1CCc2cc([C@@H]3C[C@H]3NCC3CCNCC3)ccc21 (relative stereo) [Compound A47, Trans-biphenyl-4-yl(5-(2-(piperidin-4-ylmethylamino)cyclopropyl)indolin-1-yl)methanone] | 0.0102 ± 0.00159 | 179 to 180 | > 100 | 7.33 ± 0.11
O=C(c1cccc(C(F)(F)F)c1)N1CCc2cc([C@@H]3C[C@H]3NCC3CCNCC3)ccc21 (relative stereo) [Compound A48, Trans-(5-(2-(piperidin-4-ylmethylamino)cyclopropyl)indolin-1-yl)(3-(trifluoromethyl)phenyl) methanone] | 0.02557 ± 0.00011 | 230 to 232 | > 100 | 42.6 ± 0.78
O=C(OCc1ccccc1)N1CCc2cc([C@@H]3C[C@H]3NCC3CCNCC3)ccc21 (relative stereo) [Compound A50, Trans-benzyl-5-(2-(piperidin-4-ylmethylamino)cyclopropyl)Indoline-1-carboxylate] | 0.0353 ± 0.00348 | 215 to 218 | > 100 | 10.7 ± 1.22
CC(C)(C)OC(=O)c1ccc(CN2CCC(CNC3CC3c3ccc4c(c3)CCN4S(=O)(=O)c3ccccc3)CC2)cc1 (stereo not drawn) [Compound A25, Trans-tert-butyl 4-((4-(2-(1-(phenylsulfonyl))indolin-5-yl)cyclopropylamino)methyl)piperidin-1-yl)methyl) benzoate] | 0.534 ± 0.384 | 62 to 65 | – | –
O=C(O)c1ccc(CN2CCC(CNC3CC3c3ccc4c(c3)CCN4S(=O)(=O)c3ccccc3)CC2)cc1 (stereo not drawn) [Compound A26, Trans-4-((4-(2-(1-(phenylsulfonyl))indolin-5-yl)cyclopropylamino)methyl)piperidin-1-yl) methyl)benzoic acid] | 0.461 ± 0.0319 | 190 to 192 | – | –
